{"source": "patent US11465984B2", "about": "“Compound having ERK kinase inhibitory activity and use thereof” (SHANGHAI HAIHE PHARMACEUTICAL CO., LTD., priority 2017, dated 2022)", "key": {"[1]": {"tested_on": "human melanoma cell line A375", "assay": "In vitro cell study: proliferation of A375 cells (SRB)", "assay_type": "cell-based", "conditions": "A-375, 72 h incubation, read-out: IC50 against A375 cell", "method": "The inhibitory activity of Compound P9 of the invention and the representative compounds of WO2017/114510A1 on the proliferation of human melanoma cell line A375 (IC50 value) was determined in this Example.\n• Cell: human melanoma cell line A375 (CRL-1619™, ATCC) • Detection reagent: sulforhodamine B SRB (S9012, Sigma) • Microplate: 96 well microplate (3599, Corning) • Microplate reader: full-wavelength microplate reader (SpectraMax 190, Molecular Devices) (2). Assay Protocol:\nCells in logarithmic growth phase were seeded at appropriate density (3500/well) into 96-well microplates in the volume of 90 μL per well. After incubation in a CO2 incubator at 37° C. overnight, 10 μL of the compound at various concentrations or saline for medium control was added in triplicate and incubated for 72 h, and a blank well was set. […] The optical density (OD value) at the wavelength of 560 nm was measured using a full-wavelength microplate reader SpectraMax 190. The inhibition rate of the drug on the growth of the tumor cells was calculated according to the following formula: […]\nThe IC50 values were obtained by regression with four-parameter method using the software attached to the microplate reader. […]"}, "[2]": {"assay": "Thermodynamic solubility assay", "assay_type": "physicochemical", "conditions": "thermodynamic from solid, 37° C.", "method": "The thermodynamic solubility of the compounds of the invention was determined in this Example\n(3) Assay Protocol: Blank Vehicle with Different pH Values: • PH7.4: DPBS • PH6.8: 9900 μL HBSS+100 μL HEPS+5 μL 2N NaOH • […]: DPBS adjusted with 2N HCl to pH 2.0 Incubation: • About 3 mg of the compound was weighed, added with 500 μL of blank vehicle, and shaked at 37° C. for 24 h. Sample Treatment: • After incubation, the samples were centrifuged for 30 min, and the supernatant was transferred to a new EP tube and further centrifuged for 30 min • After centrifugation, the samples were diluted by 100 times with ACN/H2O (V/V, 1:1). • Linear concentration range from 12.5 nM to 1 mM was configured with ACN/H2O (V/V, 1:1). Biological Analysis: • All samples were mixed with water at the 1:1 ratio by volume, centrifuged at 4000 rpm for 5 min, and analyzed by LC-MS/MS. Analysis Methods:\nChromatography Conditions: • Analysis column: Acquity BEH C18 (1.7 μm; 2.1×50 mm, Waters) • Mobile phase A: 0.1% FA in H2O • Mobile phase B: 0.1% FA in CAN/MEOH (9:1, V/V) • Gradient: as shown in the table below.\nMS/MS System • Multiple Reaction Monitoring (MRM) mode was used: […]"}}, "note": "Read-outs that look alike come from different tables or passages of the source.", "data": [{"smiles": "Cn1nccc1Nc1cc(-c2cc(F)c3c(c2)CCN3C(=O)Cc2cccnc2Cl)ccn1", "note": "[Example P9, 2-(2-chloropyridin-3-yl)-1-(7-fluoro-5-(2-((1-methyl-1H-pyrazol-5-yl)amino)pyridin-4-yl)indolin-1-yl)ethan-1-one]", "values": [{"measurement": "IC50", "setting": "[1]", "value": 363, "unit": "nM"}, {"measurement": "solubility at 24 h", "setting": "[2]; HBSS/HEPES 10 mM/BSA 0.1% pH 6.8, pH 6.8, aqueous buffer, read-out: Maximum solubility in pH 6.8 HBSS/HEPES 10 mM/BSA 0.1%", "value": "267 ± 3", "unit": "µM"}, {"measurement": "solubility at 24 h", "setting": "[2]; PBS (DPBS) pH 2.0, pH 2, aqueous buffer, read-out: Maximum solubility in pH 2.0 PBS", "value": "2850 ± 62", "unit": "µM"}, {"measurement": "solubility at 24 h", "setting": "[2]; PBS buffer, pH 7.4, aqueous buffer, read-out: Maximum solubility in pH 7.4 PBS", "value": "544 ± 5.3", "unit": "µM"}]}]}
